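Tested at 5 concentrations; 48 h exposure; 96-well plates; endpoints linearly interpolated, else capped at highest concentration. At the GI50, growth is halved. At the TGI there is no net growth.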
Key:
Experiment in all cases: NCI tumour cell line growth inhibition, 48 h
HCT-15 colon = test system: HCT-15 colon
HOP-92 NSCLC = test system: HOP-92 NSCLC
HL-60(TB) leukemia = test system: HL-60(TB) leukemia
786-0 renal = test system: 786-0 renal
A498 renal = test system: A498 renal
U251 CNS = test system: U251 CNS
NCI-H23 lung = test system: NCI-H23 lung
OVCAR-3 ovarian = test system: OVCAR-3 ovarian
UACC-257 melanoma = test system: UACC-257 melanoma

| Compound | TGI (HCT-15 colon) | TGI (HOP-92 NSCLC) | TGI (HL-60(TB) leukemia) | TGI (786-0 renal) | TGI (A498 renal) | TGI (U251 CNS) | TGI (NCI-H23 lung) | TGI (OVCAR-3 ovarian) | TGI (UACC-257 melanoma) | GI50 (HCT-15 colon) | GI50 (HOP-92 NSCLC) | GI50 (786-0 renal) | GI50 (A498 renal) | GI50 (U251 CNS) | GI50 (NCI-H23 lung) | GI50 (OVCAR-3 ovarian) | GI50 (UACC-257 melanoma) | GI50 (HL-60(TB) leukemia) |
| --- | --- | --- | --- | --- | --- | --- | --- | --- | --- | --- | --- | --- | --- | --- | --- | --- | --- | --- |
| C=C(C#N)C1OCC2OC(C)(C)OC21 (configuration not stated) | 35.3 µM | 43.3 µM | 43 µM | 39.4 µM | 51.2 µM | > 100 µM | 34.8 µM | 46 µM | 30 µM |  |  |  |  |  |  |  |  |  |
| COc1ccc(-c2cc(=O)c3ccccc3o2)cc1N | > 100 µM | > 100 µM | 47.9 µM | > 100 µM | > 100 µM | > 100 µM | > 100 µM | > 100 µM | > 100 µM |  |  |  |  |  |  |  |  |  |
| COc1ccc(/C(=N\NC(=O)C(=O)NN)C(c2ccc(OC)cc2)C2(O)C(=O)Nc3ccccc32)cc1 (configuration not stated) | > 100 µM | > 100 µM |  | > 100 µM | > 100 µM | > 100 µM | > 100 µM | > 100 µM |  |  |  |  |  |  |  |  |  |  |
| Cn1nc(-c2ccccc2)c(C(=O)/C=C/c2ccc(Cl)cc2)c(N2CCCCC2)c1=O | 15 µM | 5.14 µM | 4 µM | 3.67 µM |  | 3.82 µM | 5.48 µM |  |  |  |  |  |  |  |  |  |  |  |
| C[C@]12CCC(=O)C(O)=C1CC[C@@H]1C2CC[C@]2(C)NC(=O)CCC12 (some centres not stated) | > 100 µM | > 100 µM | > 100 µM | > 100 µM | > 100 µM | > 100 µM | > 100 µM | > 100 µM | > 100 µM |  |  |  |  |  |  |  |  |  |
| CC(C)(C)CC(C)(C)c1cc2c(O)c(c1)Cc1cc(C(C)(C)CC(C)(C)C)cc(c1O)Cc1cc(C(C)(C)CC(C)(C)C)cc(c1O)Cc1cc(C(C)(C)CC(C)(C)C)cc(c1O)Cc1cc(C(C)(C)CC(C)(C)C)cc(c1O)C2 | > 100 µM | > 100 µM | > 100 µM | > 100 µM |  | > 100 µM | > 100 µM | > 100 µM | > 100 µM |  |  |  |  |  |  |  |  |  |
| Cc1cccc(C)c1CO | > 100 µM | > 100 µM | > 100 µM | > 100 µM |  | > 100 µM | > 100 µM | > 100 µM | > 100 µM |  |  |  |  |  |  |  |  |  |
| CC1=C[C@]2(O)C(=O)[C@H](C)C[C@H]3[C@@H](CC[C@@](C)(O)/C=C\2C1=O)C3(C)C | 32.4 µM | 48.2 µM | > 100 µM | 39.5 µM | 47.2 µM | 52.7 µM | 72.6 µM | 38.1 µM | 35.7 µM |  |  |  |  |  |  |  |  |  |
| CCOc1ccc(N=Cc2ccc3cc(C)ccc3n2)cc1 | > 100 µM | > 100 µM | 48 µM | > 100 µM | > 100 µM | > 100 µM | > 100 µM | > 100 µM | > 100 µM |  |  |  |  |  |  |  |  |  |
| O=C(c1ccccc1)c1c(-c2ccccc2)sc2nc3ccccc3nc12 | > 100 µM | > 100 µM | > 100 µM | > 100 µM | > 100 µM | > 100 µM | > 100 µM | > 100 µM | > 100 µM |  |  |  |  |  |  |  |  |  |
| CC(=O)[CH-]C(=O)c1ccccc1.CC(=O)[CH-]C(=O)c1ccccc1.CC(C)CCCC(C)[C@H]1CCC2[C@@H]3CC=C4C[C@@H]([O-])CC[C@]4(C)C3CC[C@@]21C.CC(C)CCCC(C)[C@H]1CCC2[C@@H]3CC=C4C[C@@H]([O-])CC[C@]4(C)C3CC[C@@]21C.[Ti+4] (some centres not stated) | > 100 µM | > 100 µM |  | > 100 µM | > 100 µM | > 100 µM | > 100 µM | > 100 µM | > 100 µM | > 100 µM | > 100 µM | > 100 µM | > 100 µM | > 100 µM | > 100 µM | > 100 µM | > 100 µM |  |
| Cc1ccc(/C(O)=C/c2nc3c(nc2NC24CC5CC(CC(C5)C2)C4)c(=O)oc2ccccc23)cc1 | > 100 µM | > 100 µM | > 100 µM | > 100 µM |  | > 100 µM | > 100 µM | > 100 µM | > 100 µM |  |  |  |  |  |  |  |  |  |
| O=C(O)Cc1cc(=O)[nH]c2c1/C(=N/O)CCC2 | > 100 µM | > 100 µM | > 100 µM | > 100 µM |  | > 100 µM | > 100 µM | > 100 µM | > 100 µM |  |  |  |  |  |  |  |  |  |
| CC(C)[O-].CC(C)[O-].O=C1C=C([O-])C(=O)c2ccccc21.O=C1C=C([O-])C(=O)c2ccccc21.[Ti+4] | > 100 µM | > 100 µM | > 100 µM | > 100 µM | > 100 µM | > 100 µM | > 79.3 µM | > 100 µM | > 100 µM | > 73.4 µM | > 100 µM | > 86.4 µM | > 100 µM | > 68.8 µM | 3.94 µM | > 70.5 µM | 4.97 µM | 17.4 µM |
| COc1ccc(NC(=O)CC/C(CC(=O)C(C)(C)C)=N\NC(=O)C(=O)NN)cc1 | > 100 µM | > 100 µM | > 100 µM | > 100 µM | > 100 µM | > 100 µM | > 100 µM | > 100 µM | > 100 µM |  |  |  |  |  |  |  |  |  |

From PubChem BioAssay (NCI)
